The source of these data is patent US8124623B2, “5-hydroxymethyl-oxazolidin-2-one-derivatives and their uses as antibacterials” (Actelion Pharmaceuticals Ltd., priority 2006, dated 2012).

One experiment relates to S. aureus A798. Put plainly: MIC, broth microdilution (NCCLS). The class given is cell-based. The following applies: for MIC: Staphylococcus aureus. The procedure: These assays have been performed following the description given in “Methods for dilution Antimicrobial Susceptibility Tests for Bacteria that Grow Aerobically, 4th ed.; Approved standard: NCCLS Document M7-A4; National Committee for Clinical Laboratory Standards Villanova, Pa., USA, 1997”. Minimal inhibitory concentrations (MICs; mg/l) were determined in cation-adjusted Mueller-Hinton Broth (BBL) by a microdilution method following NCCLS guidelines (National Committee for Clinical Laboratory Standards. Methods for Dilution Antimicrobial Susceptibility). The pH1 of the test medium was 7.2-7.3. In the particular case wherein the compound to be tested is a compound of formula IPDc wherein at least one of R^1 and R^2 represents OPO3H2, then the test was carried out in the presence of human alkaline phosphatase (concentration: 1 U/mL). In the particular case wherein the compound to be tested is a compound of formula IPDG wherein R^1 represents a group OCOR^5, then the test may be carried out in the presence of 50% human serum.
Background: Broth dilution looks for growth in wells or tubes with falling amounts of substance.

A further experiment deals with C. difficile ATCC 43596. Nature of the experiment: MIC, anaerobic broth microdilution, reference strains. The class given is cell-based, Clostridium difficile. The following applies: Clostridioides difficile, ATCC43596, 48 h, read-out: MIC regarding C. difficile ATCC 43596.
Another experiment deals with C. difficile ATCC 9689. The description is as above. In kind it is cell-based, Clostridium difficile. Particulars: Clostridioides difficile, ATCC9689, 48 h, read-out: MIC regarding C. difficile ATCC 9689.
A further experiment has as its system C. difficile NC 13366. Described as above. The following applies: Clostridioides difficile, NC13366, 48 h, read-out: MIC regarding C. difficile NC 13366. The class given is cell-based, Clostridium difficile.
A further experiment deals with C. perfringens DSM 756. Nature of the experiment: microbe, parasite or virus in culture. The class given is cell-based. The following applies: Clostridium perfringens, DSM756, 48 h, read-out: MIC regarding C. perfringens DSM 756.
The subject of another experiment is M. catarrhalis A894. Nature of the experiment: MIC, broth microdilution (NCCLS). In kind it is cell-based.
The next experiment relates to S. Pneumoniae 49619. Put plainly: MIC, broth microdilution (NCCLS). In kind it is cell-based. The procedure: (§1) These assays have been performed following the description given in “Methods for dilution Antimicrobial Susceptibility Tests for Bacteria that Grow Aerobically, 4th ed.; Approved standard: NCCLS Document M7-A4; National Committee for Clinical Laboratory Standards Villanova, Pa., USA, 1997”. Minimal inhibitory concentrations (MICs; mg/l) were determined in cation-adjusted Mueller-Hinton Broth (BBL) by a microdilution method following NCCLS guidelines (National Committee for Clinical Laboratory Standards. Methods for Dilution Antimicrobial Susceptibility). The pH1 of the test medium was 7.2-7.3.

The test system of the next experiment is E. faecalis 29212. Nature of the experiment: MIC, broth microdilution (NCCLS). In kind it is cell-based. Particulars: Enterococcus faecalis, read-out: MIC against E. faecalis 29212. The method, then:
as §1

Experiment [1] deals with 209 diverse clinical isolates of C. difficile. Nature of the experiment: MIC, CLSI agar dilution, clinical isolates. In kind it is cell-based, Clostridium difficile. The following applies: Clostridioides difficile, 209 clinical isolates of C. difficile. (In general: In agar dilution the substance is mixed into plates at graded concentrations.)
Experiment [2] concerns C. difficile strain NC13366. The class given is cell-based.
Setting [3] is: A798, read-out: MIC S. aureus A798.
[4] abbreviates: A798, in the absence of human serum, read-out: MIC against S. aureus A798.
[5] abbreviates: A798, in the presence of human alkaline phosphatase (1 U/mL), read-out: MIC against S. aureus A798.
The mark [6] stands for this setting: A798, phosphatase absent, read-out: MIC against S. aureus A798.

Converted amounts (≈) assume the structure as drawn. Read-outs that look alike come from different tables or passages of the source. Bounds are passed on as bounds.

With `O=C(O)c1cn(C2CC2)c2cc(N3CCC(O)(COc4ccc(N5C[C@H](CO)OC5=O)cc4F)C3)c(F)cc2c1=O` (mixture of isomers) [Example 6, 1-cyclopropyl-6-fluoro-7-{(RS)-3-[2-fluoro-4-((R)-5-hydroxymethyl-2-oxo-oxazolidin-3-yl)-phenoxymethyl]-3-hydroxy-pyrrolidin-1-yl}-4-oxo-1,4-dihydro-quinoline-3-carboxylic acid], the MIC with S. aureus A798 (setting [3]) came out at 1 µg/mL; in the experiment on C. difficile ATCC 43596, 0.25 µg/mL; in the experiment on C. difficile ATCC 9689 it was 0.5 µg/mL; with C. difficile NC 13366, 0.25 µg/mL; in the experiment on C. perfringens DSM 756 it was 0.125 µg/mL.

On to `O=C(O)c1cn(C2CC2)c2cc(N3CCC(COc4ccc(N5C[C@H](CO)OC5=O)cc4F)C3)c(F)cc2c1=O` (mixture of isomers) [Example 8, 1-cyclopropyl-6-fluoro-7-{(RS)-3-[2-fluoro-4-((R)-5-hydroxymethyl-2-oxo-oxazolidin-3-yl)-phenoxymethyl]-pyrrolidin-1-yl}-4-oxo-1,4-dihydro-quinoline-3-carboxylic acid], for which the MIC in the experiment with S. aureus A798 (setting [3]) came to 0.125 µg/mL.

Consider `COc1c(N2CCC(COc3ccc(N4C[C@H](CO)OC4=O)cc3F)C2)c(F)cc2c(=O)c(C(=O)O)cn(C3CC3)c12` (mixture of isomers) [Example 9, 1-cyclopropyl-6-fluoro-7-{(RS)-3-[2-fluoro-4-((R)-5-hydroxymethyl-2-oxo-oxazolidin-3-yl)-phenoxymethyl]-pyrrolidin-1-yl}-8-methoxy-4-oxo-1,4-dihydro-quinoline-3-carboxylic acid], for which, in the experiment with S. aureus A798 (setting [3]), the MIC was 1 µg/mL.

With `COc1c(N2CCC(O)(COc3ccc(N4C[C@H](CO)OC4=O)cc3F)C2)c(F)cc2c(=O)c(C(=O)O)cn(C3CC3)c12` (mixture of isomers) [Example 7, 1-cyclopropyl-6-fluoro-7-{(RS)-3-[2-fluoro-4-((R)—S-hydroxymethyl-2-oxo-oxazolidin-3-yl)-phenoxymethyl]-3-hydroxy-pyrrolidin-1-yl}-8-methoxy-4-oxo-1,4-dihydro-quinoline-3-carboxylic acid], the “MIC S. aureus A798” value with S. aureus A798 worked out at 1 µg/mL (≈ 1.66 µM). Also, in the experiment on M. catarrhalis A894, the “MIC M. catarrhalis A894” value was found to be 0.063 µg/mL (≈ 0.105 µM). The “MIC S. Pneumoniae 49619” value in the experiment with S. Pneumoniae 49619 is 0.25 µg/mL (≈ 0.416 µM).

Regarding `O=C(O)c1cn(C2CC2)c2cc(N3CCC(COc4ccc(N5C[C@H](CO)OC5=O)cc4F)CC3)c(F)cc2c1=O` [Example 2, 1-cyclopropyl-6-fluoro-7-{4-[2-fluoro-4-((R)-5-hydroxymethyl-2-oxo-oxazolidin-3-yl)-phenoxymethyl]-piperidin-1-yl}-4-oxo-1,4-dihydro-quinoline-3-carboxylic acid], the MIC with S. aureus A798 (setting [3]) is 0.25 µg/mL (≈ 0.439 µM).

Consider `O=C(O)c1cn(C2CC2)c2nc(N3CCC(O)(COc4ccc(N5C[C@H](CO)OC5=O)cc4F)CC3)c(F)cc2c1=O` [Example 3, 1-cyclopropyl-6-fluoro-7-[4-[2-fluoro-4-((R)-5-hydroxymethyl-2-oxo-oxazolidin-3-yl)-phenoxymethyl]-4-hydroxy-piperidin-1-yl]-4-oxo-1,4-dihydro-[1,8]naphthyridine-3-carboxylic acid], for which the MIC in the experiment with S. aureus A798 (setting [3]) is 0.25 µg/mL (≈ 0.426 µM); against M. catarrhalis A894 (Moraxella catarrhalis, A894), 0.5 µg/mL (≈ 0.852 µM).

As to `C[C@H](N)C(=O)OC[C@H]1CN(c2ccc(OCC3(O)CCN(c4cc5c(cc4F)c(=O)c(C(=O)O)cn5C4CC4)CC3)c(F)c2)C(=O)O1.Cl` [Example 4, 7-(4-{-4-[(R)-5-((S)-2-amino-propionyloxymethyl)-2-oxo-oxazolidin-3-yl]-2-fluoro-phenoxymethyl}-4-hydroxy-piperidin-1-yl)-1-cyclopropyl-6-fluoro-4-oxo-1,4-dihydro-quinoline-3-carboxylic acid hydrochloride], the MIC with S. aureus A798 (setting [4]) was 0.5 µg/mL.

For `O=C(O)c1cn(C2CC2)c2cc(N3CCC(O)(COc4ccc(N5C[C@H](COP(=O)(O)O)OC5=O)cc4F)CC3)c(F)cc2c1=O` [Example 5, 1-cyclopropyl-6-fluoro-7-{4-[2-fluoro-4-((R)-2-oxo-5-phosphonooxymethyl-oxazolidin-3-yl)-phenoxymethyl]-4-hydroxy-piperidin-1-yl}-4-oxo-1,4-dihydro-quinoline-3-carboxylic acid], the MIC in the experiment with S. aureus A798 (setting [5]) is 0.25 µg/mL; with S. aureus A798 (setting [6]) it was over 16 µg/mL.

For the compound `O=C(O)c1cn(C2CC2)c2cc(N3CCC(COc4ccc(N5C[C@H](CO)OC5=O)cc4F)(OP(=O)(O)O)CC3)c(F)cc2c1=O` [Example 10, 1-cyclopropyl-6-fluoro-7-{4-[2-fluoro-4-((R)-5-hydroxymethyl-2-oxo-oxazolidin-3-yl)-phenoxymethyl]-4-phosphonooxy-piperidin-1-yl}-4-oxo-1,4-dihydro-quinoline-3-carboxylic acid], the MIC amounted to 0.5 µg/mL in the experiment on S. aureus A798 (setting [5]) and 16 µg/mL (≈ 24 µM) in the experiment with S. aureus A798 (setting [6]).

Regarding `CCn1cc(C(=O)O)c(=O)c2cc(F)c(N3CCC(COc4ccc(N5C[C@H](CO)OC5=O)cc4F)CC3)cc21` [Example 11, 1-ethyl-6-fluoro-7-{4-[2-fluoro-4-((R)-5-hydroxymethyl-2-oxo-oxazolidin-3-yl)-phenoxymethyl]-piperidin-1-yl}-4-oxo-1,4-dihydro-quinoline-3-carboxylic acid], the MIC is over 16 µg/mL in the experiment on S. aureus A798 (setting [3]) and 8 µg/mL (≈ 14.3 µM) with E. faecalis 29212.

With `C[C@H](N)C(=O)OC[C@H]1CN(c2ccc(OCC3CCN(c4cc5c(cc4F)c(=O)c(C(=O)O)cn5C4CC4)CC3)c(F)c2)C(=O)O1.Cl` [Example 12, 7-(4-{4-[(R)-5-((S)-2-amino-propionyloxymethyl)-2-oxo-oxazolidin-3-yl]-2-fluoro-phenoxymethyl}-piperidin-1-yl)-1-cyclopropyl-6-fluoro-4-oxo-1,4-dihydro-quinoline-3-carboxylic acid hydrochloride], in the experiment on S. aureus A798 (setting [4]), the MIC was 0.5 µg/mL.

Consider `O=C(O)c1c[nH]c2cc(N3CCC(O)(COc4ccc(N5C[C@H](CO)OC5=O)cc4F)CC3)c(F)cc2c1=O` [Example 13, 6-fluoro-7-{4-[2-fluoro-4-((R)-5-hydroxymethyl-2-oxo-oxazolidin-3-yl)-phenoxymethyl]-4-hydroxy-piperidin-1-yl}-4-oxo-1,4-dihydro-quinoline-3-carboxylic acid], for which, in the experiment on S. aureus A798 (setting [3]), the MIC came out at 2 µg/mL (≈ 3.67 µM).

In the case of `O=C(O)c1c[nH]c2nc(N3CCC(O)(COc4ccc(N5C[C@H](CO)OC5=O)cc4F)CC3)c(F)cc2c1=O` [Example 14, 6-fluoro-7-{4-[2-fluoro-4-((R)-5-hydroxymethyl-2-oxo-oxazolidin-3-yl)-phenoxymethyl]-4-hydroxy-piperidin-1-yl}-4-oxo-1,4-dihydro-[1,8]naphthyridine-3-carboxylic acid], the MIC in the experiment on S. aureus A798 (setting [3]) was 4 µg/mL (≈ 7.32 µM).

Consider `Cc1ncc([N+](=O)[O-])n1CCO` [metronidazole], for which the MIC90 (as a rule, the lowest concentration that inhibits either 90% of growth or 90% of the strains tested, depending on the study) in experiment [1] was 1 µg/mL (≈ 5.84 µM). In experiment [2] (1 and 8 μg/mL, day 5 vs day 1, high density stationary phase cultures), the “de novo toxin A production in supernatants” value is listed as “did not inhibit toxin A production under these conditions or did so only weakly”.

Regarding `CN[C@H](CC(C)C)C(=O)N[C@H]1C(=O)N[C@@H](CC(N)=O)C(=O)N[C@H]2C(=O)N[C@H]3C(=O)N[C@H](C(=O)N[C@H](C(=O)O)c4cc(O)cc(O)c4-c4cc3ccc4O)[C@H](O)c3ccc(c(Cl)c3)Oc3cc2cc(c3O[C@@H]2O[C@H](CO)[C@@H](O)[C@H](O)[C@H]2O[C@H]2C[C@](C)(N)[C@H](O)[C@H](C)O2)Oc2ccc(cc2Cl)[C@H]1O` [vancomycin], the “de novo toxin A production in supernatants” value in [2] is given as “did not inhibit toxin A production under these conditions or did so only weakly”.
